Data as given in PubChem BioAssay (NCI).
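Method: 48-hour compound exposure of cells in 96-well plates, five concentrations, linear interpolation of endpoints. At the GI50, growth is halved. Definition used: TGI = concentration required for complete inhibition of growth.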

Assays:
Test in all cases: DTP human tumour cell line panel, 48 h
[1] = test system: A549 NSCLC
[2] = test system: HOP-62 NSCLC
[3] = test system: IGROV1 ovarian
[4] = test system: MOLT-4 leukemia
[5] = test system: OVCAR-3 ovarian
[6] = test system: SR leukemia
[7] = test system: COLO 205 colon
[8] = test system: HCT-116 colon
[9] = test system: HL-60(TB) leukemia
[10] = test system: SK-MEL-2 melanoma

Cc1cc(N2CCSCC2)nc(NC2CCCC(Nc3ccnc4cc(Cl)ccc34)C2)n1 (centres undefined)
GI50 [1]: 2.88 µM | TGI [1]: 8.91 µM | GI50 [2]: 1.69 µM | TGI [2]: 3.38 µM | GI50 [3]: 1.97 µM | TGI [3]: 5.39 µM | GI50 [4]: 1.55 µM | TGI [4]: 5.34 µM | GI50 [5]: 1.84 µM | TGI [5]: 3.72 µM | GI50 [6]: 0.452 µM | TGI [6]: 2.35 µM

O=c1[nH]c2cc(Cl)ccc2nc1/C(=N\O)C(O)c1ccc([N+](=O)[O-])cc1 (centres undefined)
TGI [1]: > 100 µM | TGI [7]: > 100 µM | TGI [8]: > 100 µM | TGI [9]: > 100 µM | TGI [2]: > 100 µM | TGI [3]: > 100 µM | TGI [4]: > 100 µM | TGI [10]: > 100 µM | TGI [6]: > 100 µM

CN(C)c1nc(=Nc2cccc(Cl)c2)ss1
TGI [1]: 76.4 µM | TGI [8]: 24.2 µM | TGI [9]: 23 µM | TGI [2]: > 100 µM | TGI [3]: 51 µM | TGI [4]: 22.4 µM | TGI [10]: 42.1 µM | TGI [6]: 34 µM

CCN(CC)CCCNC(=O)c1c2c(n3ccccc13)C(=O)c1ncccc1C2=O
GI50 [1]: 1.17 µM | TGI [1]: 2.84 µM | GI50 [7]: 0.123 µM | TGI [7]: 0.399 µM | GI50 [8]: 0.25 µM | TGI [8]: 1.09 µM | GI50 [2]: 0.586 µM | TGI [2]: 2.78 µM | GI50 [4]: 0.604 µM | TGI [4]: > 100 µM | GI50 [5]: 0.134 µM | TGI [5]: 0.938 µM | GI50 [10]: 1.7 µM | TGI [10]: 3.89 µM | GI50 [6]: 0.485 µM | TGI [6]: > 100 µM

CCOC(=N)/C(=C1\OC(N)=C(c2ccc(Cl)cc2)C1=O)c1ccc(Cl)cc1
TGI [1]: 66.7 µM | TGI [7]: 30.2 µM | TGI [8]: 30.7 µM | TGI [9]: 42 µM | TGI [2]: 43.6 µM | TGI [3]: > 100 µM | TGI [4]: 52.1 µM | TGI [5]: 32.8 µM | TGI [6]: 56.5 µM

O=Cc1ccc(-c2ccc(-c3nc4ccccc4o3)cc2)o1
GI50 [1]: 58.9 µM | TGI [1]: > 100 µM | GI50 [7]: 46.9 µM | TGI [7]: > 100 µM | GI50 [8]: 27.1 µM | TGI [8]: 80.4 µM | GI50 [9]: > 100 µM | TGI [9]: > 100 µM | GI50 [2]: 49.2 µM | TGI [2]: > 100 µM | GI50 [3]: 38.6 µM | TGI [3]: > 100 µM | GI50 [4]: 52 µM | TGI [4]: > 100 µM | GI50 [5]: 24.1 µM | TGI [5]: 61.9 µM | GI50 [10]: 66.4 µM | TGI [10]: > 100 µM

O=S1Nc2c(Cl)cc(Cl)c3c(Cl)cc(Cl)c(c23)N1
TGI [1]: > 100 µM | TGI [7]: > 100 µM | TGI [8]: > 100 µM | TGI [9]: > 100 µM | TGI [3]: > 100 µM | TGI [4]: > 100 µM | TGI [5]: 96.2 µM | TGI [10]: > 100 µM

Nc1ccn(C2OC(COC(=O)C34CC5CC(CC(C5)C3)C4)C(O)C2O)c(=O)n1 (centres undefined)
TGI [1]: > 100 µM | TGI [7]: > 100 µM | TGI [8]: > 100 µM | TGI [9]: > 34.1 µM | TGI [3]: > 100 µM | TGI [4]: > 100 µM | TGI [5]: > 100 µM | TGI [10]: > 100 µM

CN(Cc1cc(Cl)cc(Cl)c1)CC(C(=O)c1ccccc1)c1ccccc1 (centres undefined)
TGI [1]: > 100 µM | TGI [7]: 16.3 µM | TGI [8]: 2.36 µM | TGI [9]: 47.4 µM | TGI [2]: 71.3 µM | TGI [3]: > 58.3 µM | TGI [5]: 3.65 µM | TGI [10]: 29.7 µM | TGI [6]: > 100 µM

CC1=NN(C(=O)c2ccc([N+](=O)[O-])cc2)C(=O)C1N=Nc1ccccc1C(=O)O (centres undefined)
TGI [1]: > 100 µM | TGI [7]: > 100 µM | TGI [8]: > 100 µM | TGI [9]: > 100 µM | TGI [3]: > 100 µM | TGI [4]: > 100 µM | TGI [5]: > 100 µM | TGI [10]: > 100 µM

COc1cccc(/C=C/C(=O)c2ccc(Cl)cc2Cl)c1
GI50 [1]: 10.5 µM | TGI [1]: 22.7 µM | GI50 [7]: 8.85 µM | TGI [7]: 18.4 µM | GI50 [8]: 4.94 µM | TGI [8]: 19.1 µM | GI50 [9]: 8.9 µM | TGI [9]: > 50 µM | GI50 [3]: 15 µM | TGI [3]: > 50 µM | GI50 [4]: 0.773 µM | TGI [4]: > 50 µM | GI50 [5]: 10.9 µM | TGI [5]: 25.2 µM | GI50 [10]: 20.3 µM | TGI [10]: > 50 µM | GI50 [6]: 0.833 µM | TGI [6]: > 50 µM

Cc1cn2c(/C=N/N=C(N)N)c(-c3cccs3)nc2s1
GI50 [1]: 10.6 µM | TGI [1]: 31.1 µM | GI50 [7]: 8.16 µM | TGI [7]: 69.4 µM | GI50 [8]: 1.35 µM | TGI [8]: 2.63 µM | GI50 [3]: 10.5 µM | TGI [3]: 27.1 µM | GI50 [4]: 2.37 µM | TGI [4]: 4.65 µM | GI50 [5]: 1.91 µM | TGI [5]: 5.5 µM | GI50 [10]: 28.8 µM | TGI [10]: > 100 µM | GI50 [6]: 2 µM | TGI [6]: 3.99 µM

COC1=CC(=O)C2C(C1=O)C(c1ccccc1)[C@H]2C (some centres undefined)
TGI [1]: > 100 µM | TGI [7]: > 100 µM | TGI [9]: > 100 µM | TGI [2]: > 100 µM | TGI [3]: > 100 µM | TGI [4]: > 10 µM | TGI [5]: > 100 µM | TGI [10]: > 100 µM | TGI [6]: > 100 µM

C/C=C/CC(C)[C@@H](O)[C@H](NC)C(=O)O (some centres undefined)
TGI [1]: > 100 µM | TGI [7]: > 100 µM | TGI [9]: > 100 µM | TGI [2]: > 100 µM | TGI [3]: > 100 µM | TGI [4]: > 100 µM | TGI [5]: > 100 µM | TGI [10]: > 100 µM

COC(=O)C1[C@H](c2cc(OC)c(OC)c(OC)c2)OC(=O)C1(C(=O)OC)C(=O)c1ccc2c(c1)OCO2 (some centres undefined)
TGI [1]: > 100 µM | TGI [7]: > 100 µM | TGI [8]: > 100 µM | TGI [9]: > 100 µM | TGI [2]: > 100 µM | TGI [3]: > 100 µM | TGI [4]: > 100 µM | TGI [5]: > 100 µM

CC(=O)OC1CC2C(C)(C)C(=O)C=C[C@]2(C)C2CCC3(C)C(=CC(=O)C3c3ccoc3)[C@]12C (some centres undefined)
TGI [1]: 41 µM | TGI [7]: 34.6 µM | TGI [8]: 24.9 µM | TGI [9]: 34.1 µM | TGI [2]: 31.1 µM | TGI [3]: 57.9 µM | TGI [4]: 34 µM | TGI [5]: 25.8 µM | TGI [10]: 34.5 µM

COC(=O)Cc1ccc(Oc2cnc3cc(F)c(F)cc3n2)cc1
GI50 [1]: > 100 µM | TGI [1]: > 100 µM | GI50 [7]: > 100 µM | TGI [7]: > 100 µM | GI50 [8]: 26 µM | TGI [8]: > 100 µM | GI50 [9]: 42.5 µM | TGI [9]: > 100 µM | GI50 [2]: > 100 µM | TGI [2]: > 100 µM | GI50 [3]: > 100 µM | TGI [3]: > 100 µM | GI50 [4]: 12.7 µM | TGI [4]: 32.9 µM | GI50 [5]: 93.3 µM | TGI [5]: > 100 µM | GI50 [10]: > 100 µM | TGI [10]: > 100 µM

CCN(CC)CCCC(C)N=C(C1=C(C(=NC(C)CCCN(CC)CC)c2cccc(OC)c2)C(=O)NC1=O)c1cccc(OC)c1 (centres undefined)
GI50 [1]: 0.966 µM | TGI [1]: 2.08 µM | GI50 [7]: 0.772 µM | TGI [7]: 1.56 µM | GI50 [8]: 0.747 µM | TGI [8]: 1.89 µM | GI50 [9]: 3.66 µM | TGI [9]: 11.7 µM | GI50 [2]: 0.825 µM | TGI [2]: 2.34 µM | GI50 [3]: 3.67 µM | TGI [3]: 20.6 µM | GI50 [4]: 1.33 µM | TGI [4]: 4.24 µM | GI50 [5]: 1.45 µM | TGI [5]: 4.11 µM | GI50 [6]: 1.36 µM | TGI [6]: 4.31 µM
